In patent US4030886A, “Saturation analysis” (The Radiochemical Centre Limited, priority 1973, dated 1977):
Read-outs that look alike come from different tables or passages of the source.

Tested on: antiserum raised in rabbit against estriol-6-CMO-BSA
Settings: 4 ng label, antiserum 1:200
Procedure: Into each assay tube was dispensed 0.1M phosphate buffer containing 5% human serum (pH 7.0; 200μl), antiserum raised in rabbit against estriol-6-CMO-BSA and diluted 1:200 in 0.1M Phosphate buffer containing 5% human serum (200μl), and selenomethionine-Se75 conjugate of estriol-6-CMO (4 ng; 400 mCi/m mol). Standard amounts of estriol (1.25 ng, 10 ng and 20 ng) in human serum were added to each assay tube; to one tube was added buffer instead of antiserum as a blank. The contents of each tube were mixed and incubated at room temperature for one hour. Ammonium sulphate solution was then added (5.4g (NH4)2 SO4 = 10 ml H2 O; 500 μl) and after mixing, the solutions were centrifuged. The supernatant was removed and the precipitate counted in a gamma counter. The percentage of total counts bound to the precipitate was calculated.

selenomethionine-Se75 conjugate of estriol-6-carboxymethyloxime
% of total counts bound minus blank (0 ng estriol added): 59.1%
% of total counts bound minus blank (1.25 ng estriol added): 55.3%
% of total counts bound minus blank (10 ng estriol added): 44.3%
% of total counts bound minus blank (20 ng estriol added): 39.0%
